Measured values published in paper PMC7527212 (Science Advances, 2020).

Tests used:
[1] = system: F143W mutant of Bcl-xL; experiment: ITC measurement of Bak BH3 peptide binding, F143W mutant; parameters: species or system human; conditions: ratio of KA by ITC, F143W vs WT Bcl-xL
[2] = system: WT Bcl-xL; experiment: NMR titration / chemical shift perturbation; assay type: binding, human

Substance | affinity increase, F143W mutant versus WT Bcl-xL [1] | CSP in the cryptic site ([2]; NMR, 160 μM peptide added to 100 μM WT Bcl-xL, 10 mM NaPi pH 6.8, 2 mM DTT, 298 K) | binding to WT Bcl-xL (binding mode) ([2]; concluded from NMR CSPs, 160 μM peptide, 100 μM WT Bcl-xL)
NH3-GQVGRQLAIIGDDINR-COOH [Bak BH3 peptide] | twofold |  | 
NH3-YPLGSPLWRLHS-COOH [P1] |  | clear CSP in the cryptic site | binds to the WT Bcl-xL with the expected binding mode
